Experiment [1] deals with weeds in seedling alfalfa. The experiment in a line: Field trial in seedling alfalfa, Brawley, Calif.: percent weed control (burndown), 0 to 100% visual scale. In kind it is in vivo. The following applies: for Percent Weed Control (Burndown), mean: single application on seedling alfalfa, use rates of Table 5, 4 replicates; for Overall weed control (higher % control and lower weed densities), in words: all rating dates 6-34 DAA. An excerpt: (§1) The objective of this study was to evaluate the performance of PRONAMIDE and IMAZETHAPYR in commercial alfalfa hay production in Brawley, Calif. Trial treatments applied were as follows:
(§2) Treatments were applied on seedling alfalfa on March 14th at second to third trifoliate stage (3-4 inches tall). Treatment applications were made using a research CO2 backpack sprayer calibrated to deliver 50 gallons of solution per acre operating at 30 PSI. Weeds on the plots were on average 2-3 inches tall. Weather conditions during application were 34.3% RH, air and soil temperatures were 68° F. and 56.3° F. respectively, and soil moisture was dry.
(§3) Trial was rated at 6, 13, 20, 27 and 34 days after product application (DAA). On each rating date, Percent phytotoxicity and weed control based on a 0 to 100% visual scale, and weed density (number of weeds counted on 3 square yard quadrats) per plot were conducted.
(§4) Data was checked for normality assumptions and analyzed using a univariate Analysis of Variance, and the Least Significant Difference (LSD) mean separation test at a significance level of (α=0.1). Significant differences (p<0.1) were found for the dependent variables assessed at all rating dates (See ANOVA tables). Overall, treatments 5 (Raptor 4), 4 (PRONAMIDE and IMAZETHAPYR) and treatment 3 (WW2019-2) consistently provided the best control (higher % control and lower weed densities). Treatment efficacy as evidenced by % burndown (percent control was higher than 70% in all treatments 3-5) and weed counts (remained steady or declined up to this rating date) peaked at 27 DAA and subsequently declined (weed counts increased and percent control declined) at 34 DAA.

The subject of experiment [2] is weeds in seedling alfalfa. Description: Field trial in seedling alfalfa, Brawley, Calif.: weed density (weeds counted on square yard quadrats). In kind it is in vivo. The following applies: use rates of Table 5.
Excerpt: as §1, §2, §3, §4

The next experiment has as its system smooth pigweed. To be noted: 0.05 to 0.14 kg ai/ha, regardless of application method or herbicide rate; cited from earlier work.
In the next experiment the test system is jimsonweed. The following applies: 0.05 kg/ha; cited from earlier work.
In the next experiment the test system is velvetleaf. The following applies: 0.10 kg/ha, regardless of the application method; cited from earlier work.

Take `CCc1cnc(C2=NC(C)(C(C)C)C(=O)N2)c(C(=O)O)c1` (centres unmarked) [IMAZETHAPYR, 2-[4,5-dihydro-4-methyl-4-(1-methylethyl)-5-oxo-1H-imidazol-2-yl]-5-ethyl-3-pyridinecarboxylic acid]: the “Percent Weed Control (Burndown), mean” value in experiment [1] (6 DA-A) turned out to be 28%; in experiment [1] (13 DA-A) it was 33%; in experiment [1] (20 DA-A), 75%; in experiment [1] (27 DA-A) it was 79%; in experiment [1] (34 DA-A) it was 38%. Further, the “Overall weed control (higher % control and lower weed densities), in words” value in experiment [1] (listed as Treatment 3) was “good weed control”; in experiment [1] (listed as WW2019-2), “best control”. In addition, the “Weed Density, mean” value in experiment [2] (6 DA-A) is reported as 35 Weeds per yd^2; in experiment [2] (13 DA-A) it was 25 Weeds per yd^2; in experiment [2] (20 DA-A), 29 Weeds per yd^2; in experiment [2] (27 DA-A), 24 Weeds per yd^2; in experiment [2] (34 DA-A) it was 39 Weeds per yd^2. Further, in the experiment with smooth pigweed, the “Control of smooth pigweed” value is recorded as at least 90%. Further, the “Control of jimsonweed, better postemergence compared to soil applications” value in the experiment with jimsonweed is given as 30%. For the same compound, the Control of velvetleaf in the experiment with velvetleaf is reported as at least 90%.

In the case of `C#CC(C)(C)NC(=O)c1cc(Cl)cc(Cl)c1` [PRONAMIDE, 3,5-dichloro-n-(1,1-dimethyl-2-propynyl) benzamide], the “Percent Weed Control (Burndown), mean” value in experiment [1] (6 DA-A) amounted to 15%; in experiment [1] (13 DA-A), 20%; in experiment [1] (20 DA-A) it was 38%; in experiment [1] (27 DA-A), 25%; in experiment [1] (34 DA-A), 8%. In addition, the “Overall weed control (higher % control and lower weed densities), in words” value in experiment [1] is listed as “less beneficial weed control”. Also, the “Weed Density, mean” value in experiment [2] (6 DA-A) is given as 51 Weeds per yd^2; in experiment [2] (13 DA-A), 41 Weeds per yd^2; in experiment [2] (20 DA-A), 42 Weeds per yd^2; in experiment [2] (27 DA-A) it was 43 Weeds per yd^2; in experiment [2] (34 DA-A), 81 Weeds per yd^2.

Values taken from patent US20210378241A1, “COMBINATION COMPRISING A BENZAMIDE HERBICIDE AND A PYRIDINE CARBOXYLIC ACID HERBICIDE, AND A METHOD FOR MAKING AND USING THE COMBINATION” (Generic Crop Science LLC, priority 2020, published 2021).
